In patent US20150037832A1, “METHODS OF FACILITATING THE BIOCONVERSION OF CRUDE BIODIESEL-DERIVED GLYCEROL BY MICROORGANISMS” (priority 2011, published 2015):
“And” between values parts separate entries of the source, which are not always exact repeats. Equal entries are not always repeated. Where two headings read alike, the source gives them in different places.

Tests used:
[1] = tested on: Clostridium pasteurianum ATCC 6013; assay: Growth (optical density, μmax) and pH profiles of batch cultures; format: cell-based; conditions: for maximum specific growth rate, μmax: exponential log phase, 20 g/L glycerol and/or 10 g/L sugar; for effect on maximum optical density: 2 g/L sodium salt in 25 g/L pure glycerol
Description: (§1) Pre-cultures for glycerol utilization experiments were grown in RCM. The growth was monitored using optical density (λ=600 nm) and the cultures were used as inoculum once they reached the mid-exponential phase of growth. 100 mL of Biebl medium with appropriate carbon sources was inoculated with 10% inoculum and the contents were split equally into three in a 75 mL culture flask. All experiments were carried out in batch cultures and in triplicates. The cultures were monitored for growth, substrate utilization and product formation as mentioned earlier.
The co-fermentation of sugars was studied using hexose (dextrose) and pentose (D-xylose and L-arabinose) with 20 g/L of pure glycerol at a concentration of 10 g/L of the sugars, maintaining a 2:1 ratio of glycerol and sugars. Cells grown on glycerol or sugar alone were used as controls. […] Acetate and butyrate were studied at concentrations of 2 g/L with an initial glycerol concentration of 25 g/L of pure glycerol. Biotin was supplemented in the media at 0.8 mg/L with an initial concentration of 25 g/L of pure glycerol.

[2] = tested on: Clostridium pasteurianum ATCC 6013; assay: Product yields and substrate utilization of fermentation (HPLC); conditions: for 1,3-PDO yield / conversion: sole carbon source; for effect of addition on butanol / product formation: added to glycerol fermentation
Description: Freeze dried pure cultures of C. pasteurianum were revived using nutrient rich reinforced clostridal growth media (RCM) and glycerol stock cultures were prepared for future use. […] Pre-culture for glycerol utilization experiments were grown in RCM. The growth was monitored using optical density and the cultures were used as inoculum once they reached mid-exponential phase of growth. The growth experiments were conducted in 75 mL culture flasks containing 40 mL of the media and 5 mL of inoculum. Defined media was used for glycerol utilization. Unless otherwise specified purified glycerol or biodiesel derived crude glycerol were used as the sole carbon source. All experiments were conducted in an anaerobic chamber (95% N2 and 5% H2) at a temperature of 37° C. to ensure oxygen-free conditions.
as §1
The co-fermentation of sugars was studied using hexose (dextrose) and pentose (D-xylose and L-arabinose) with 20 g/L of pure glycerol at a concentration of 10 g/L of the sugars, maintaining a 2:1 ratio of glycerol and sugars. Cells grown on glycerol or sugar alone were used as controls.

[3] = tested on: Clostridium pasteurianum ATCC 6013; assay: Effect of impurities on glycerol fermentation; format: cell-based; conditions: for substrate utilization: fatty acid sodium salt at 5%, 10% and 15% (w/w) of initial substrate; for substrate utilization / growth and product yield: 25 g/L pure glycerol; for growth and product yield: salt at 2.5, 5, 7.5 and 10% (w/w) of initial glycerol
Description: Defined media was used for glycerol utilization.
To study the effect of impurities in crude glycerol, various concentrations of each impurity were added to the media containing 25 g/L pure glycerol. Methanol was added at 2.5 g/L and 5 g/L. Potassium chloride and potassium sulfate were added at 2.5, 5, 7.5 and 10% (w/w) of the initial glycerol concentration. The fatty acids were added in the form of sodium salts of steric acid, oleic acid and linoleic acid at 5, 10 and 15% (w/w) (of initial substrate conc.). The media containing 25 g/L of pure glycerol was used as the control. The effects of fatty acids were also studied by partially purifying the crude glycerol by precipitating the fatty acids using concentrated hydrochloric acid. The crude glycerol was diluted in deionized water at a ratio of 1:3 and hydrochloric acid was added to lower pH to between 2 and 3. At this pH the fatty acids precipitated and were removed by centrifugation at 5000 rpm for 15 minutes. The precipitated fatty acids were later analyzed using NMR by dissolving them in d-DMSO.

C. acetobutylicum = conditions: butyrate addition at 2 g/L, reported; cited from earlier work
[4] = tested on: Clostridium pasteurianum ATCC 6013
Description: The cell membrane was extracted using dichloromethane/methanol mixtures. The membrane extracted in dichloromethane was separated by evaporating the solvents under a gentle nitrogen stream. This dry film of the membrane was used for further analysis.
The dry film of the membrane was dissolved in deuterated chloroform for NMR analysis. Synthetic lipids such as Diaplmitoylphosphotidylcholine (DPPC) and Dioleylphosphotidylcholine (DOPC) were used as standards for NMR analysis. The dry films of the membrane lipids were labeled with DPH (500:1) and made into liposomes for analyzing the stability of the membrane by studying the fluorescence anisotropy using a Perkin-Elmer LS50B.

[5] = L-arabinose added to glycerol, vs glycerol alone
[6] = endogenously produced butanol, defined media, varied glycerol concentration
[7] = exogenous butanol 2 g/L to 20 g/L, defined media with 50 g/L glucose and RCM

What does the source list for `OCC(O)CO` [Glycerol, glycerol]?
maximum specific growth rate, μmax [1]: 1.562 ± 0.118 day⁻¹; butanol yield ([2]; control experiment with glycerol): 22 % (g/g); 1,3-PDO yield / conversion ([2]; control): 20 % (g/g)

Which “maximum specific growth rate, μmax” value [1] does the source give for `O=C[C@H](O)[C@@H](O)[C@@H](O)CO` [L-arabinose] here?
The value was 0.933 ± 0.054 day⁻¹.

What about the ethanol yield ([2]; L-arabinose added to glycerol) of the same molecule?
Its ethanol yield is 0.10 g/g.

What about the “increase of 1,3-PDO yield” value [2, 5] of the same molecule?
The value was 65%.

What about the “increase of ethanol yield” value [2, 5] of the same molecule?
Its value is 5 fold.

What about the “1,3-PDO and ethanol as share of overall products” value ([2]; L-arabinose as carbon source) of the same molecule?
The value was 85%.

And the “effect of addition on butanol / product formation” value [2]?
The value was “does not affect the yield of butanol”.

And the “ratio of butanol/1,3-PDO” value ([2]; addition of L-arabinose to glycerol)?
The value was 0.64.

What about the “1,3-PDO maximum yield” value ([2]; control, L-arabinose sole carbon source) of the same molecule?
Its value is 36.5 % (g/g).

What about the “1,3-PDO yield / conversion” value ([2]; control) of the same molecule?
The value was 28 % (g/g).

And the “Ethanol and 1,3-PDO as share of the products yielded” value ([2]; cultures on arabinose)?
Its value is ~86 % (mol/mol).

What about the “1,3-PDO yield” value ([2]; sugar 10 g/L added as co-substrate to 20 g/L glycerol, with respect to glycerol) of the same molecule?
Its value is 0.33 g/g.

With `CCCCC/C=C\C/C=C\CCCCCCCC(=O)[O-].[Na+]` [sodium linoleate] as the molecule, how does the substrate utilization [3] read?
The substrate utilization was “completely inhibited”.

Which “maximum specific growth rate, μmax” value [1] does the source give for `O=C[C@H](O)[C@@H](O)[C@H](O)CO` [D-xylose] here?
The value was 0.794 ± 0.390 day⁻¹.

And the “acetate, 1,3-PDO and ethanol as share of the overall products” value ([2]; D-xylose as sole carbon source)?
Its value is 88%.

And the product formation ([2]; D-xylose as sole carbon source)?
Its product formation is 0.78 g/g.

And the “effect of addition on butanol / product formation” value [2]?
The value was “did not result in an increase in the formation of any of the products”.

What about the “utilization of D-xylose” value ([2]; addition of D-xylose to glycerol fermentation, 2:1) of the same molecule?
Its value is 25±16%.

What about the “D-xylose left unconsumed in the media” value ([2]; co-fermentation of glycerol with xylose) of the same molecule?
The value was “more than 90%”.

For `CCCC(=O)[O-].[Na+]` [butyrate, sodium butyrate], which “effect on maximum optical density” value [1] is on record?
The value was “slightly lower maximum optical density”.

What about the “lowering of the maximum optical density” value ([1]; butyrate 2 g/L in 25 g/L pure glycerol) of the same molecule?
The value was 20%.

What about the “increase of butanol production” value (C. acetobutylicum) of the same molecule?
The value was 1.6 folds.

What about the “effect of addition on butanol / product formation” value [2] of the same molecule?
The value was “did not increase butanol production”.

With `O=S(=O)([O-])[O-].[K+].[K+]` [potassium sulfate] as the molecule, how does the “growth and product yield” value [3] read?
The value was “no detrimental effect on growth and product yield”.

For `CO` [methanol], which “growth or product formation during the fermentation of glycerol” value ([3]; methanol at 2.5 g/l and 5 g/L in media with 25 g/L pure glycerol) is on record?
The value was “no reduction in growth or product formation”.

Which “increase in butanol formation” value ([2]; supplement (acetate 2 g/L, biotin 0.8 mg/L) in 25 g/L pure glycerol, vs control) does the source give for `O=C(O)CCCC[C@@H]1SC[C@@H]2NC(=O)N[C@@H]21` [biotin] here?
Its value is 18% and ~25%.

For `[Cl-].[K+]` [Potassium chloride], which “growth and product yield” value [3] is on record?
Its value is “no detrimental effect on growth and product yield”.

Which substrate utilization [3] does the source give for `CCCCCCCCCCCCCCCCCC(=O)[O-].[Na+]` [sodium stearate] here?
The substrate utilization was “not affected”.

For `CC(=O)[O-].[Na+]` [acetate, sodium acetate], which “effect on maximum optical density” value [1] is on record?
The value was “small increase in the maximum optical density”.

What about the “decrease in 1,3-PDO production” value [2] of the same molecule?
Its value is 33%.

And the “increase in butanol formation” value [2]?
Its value is ~25% and 23%.

Which substrate utilization [3] does the source give for `CCCCCCCC/C=C\CCCCCCCC(=O)[O-].[Na+]` [sodium oleate] here?
The substrate utilization was “not affected”.

With butanol as the molecule, how does the anisotropy of membrane [4, 6] read?
Its anisotropy of membrane is “corresponding increase in anisotropy”.

And the “degree of unsaturation of membrane fatty acids” value [4, 6]?
The value was “a decrease in the degree of unsaturation”.

What about the anisotropy of membrane [4, 7] of the same molecule?
The anisotropy of membrane was “found to decrease”.

And the “degree of unsaturation of membrane fatty acids” value [4, 7]?
The value was “observed to increase”.
